Assay [1] has as its system C9orf72 (DNA) (DNA, G4) GGGGCCGGGGCCGGGGCCGGGGCC
Put plainly: fluorescence enhancement. The following applies: 40 mM K+; 20 mM Tris HCl pH 7.0; F/F0 252-fold.

Assay [2] deals with BCL-2 (DNA) (DNA, G4) AGGGGGCCGTGGGGTGGGAGCTGGGG
Put plainly: fluorescence enhancement. The note with it: 40 mM K+; 20 mM Tris HCl pH 7.0; F/F0 458-fold.

Assay [3] relates to ssAf20 (RNA) (RNA, single strand) CAAUUGUAUAUAUUCG
Put plainly: fluorescence titration. The following applies: 40 mM K+; 20 mM Tris HCl pH 7.0, 25 °C, 2 μM ThT, 1:1 fit.

Assay [4] concerns tRNA-Cys fragment (RNA, G4) GGGGGUAUAGCUCAGUGGUAGAGCAUUUGA
Description: fluorescence enhancement. The note with it: 40 mM K+; 20 mM Tris HCl pH 7.0, 2 μM ThT, 4 μM RNA; F/F0 57-fold.

The test system of assay [5] is tRNA-Ala fragment (RNA, G4) GGGGGUGUAGCUCAGUGGUAGAGCGCGUGC
Put plainly: fluorescence enhancement. The following applies: 40 mM K+; 20 mM Tris HCl pH 7.0, 2 μM ThT, 4 μM RNA; F/F0 88-fold.

The subject of assay [6] is ADAM10 (RNA, G4) GGGGGACGGGUAGGGGCGGGAGGUAGGGG
Description: fluorescence titration. The note with it: 40 mM K+; 20 mM Tris HCl pH 7.0, 25 °C, 2 μM ThT, 1:1 fit.

For assay [7], the system named is Spinach (RNA, aptamer) GCAGCCGGCUUGUUGAGUAGAGUGUGAGCUCCGUAACUGGUCGCGUC/GACGCGACCGAAUGAAAUGGUGAAGGACGGGUCCAGCCGGCUGC
Description: fluorescence enhancement. The following applies: 40 mM K+; 20 mM Tris HCl pH 7.0, 2 μM ThT, 4 μM RNA; F/F0 487-fold.

The test system of assay [8] is HP18 (RNA) (RNA, hairpin) CAGUACAGAUCUGUACUG
Put plainly: fluorescence titration. The note with it: 40 mM K+; 20 mM Tris HCl pH 7.0, 25 °C, 2 μM ThT, 1:1 fit.

Assay [9] has as its system dsAf16 (RNA) (RNA, duplex) CUUAAUUGUAUAUAUUCGCGAAUAUAUACAAUUAAG
Description: fluorescence titration. The following applies: 40 mM K+; 20 mM Tris HCl pH 7.0, 25 °C, 2 μM ThT, 1:1 fit.

For assay [10], the system named is Tel22 (DNA) (DNA, G4) AGGGTTAGGGTTAGGGTTAGGG
Description: fluorescence enhancement. The following applies: 40 mM K+; 20 mM Tris HCl pH 7.0; F/F0 1339-fold.

Assay [11] concerns Bulges-TB1 (RNA, G4) UUGUGGUGGGUGGGUGGGU
Put plainly: fluorescence enhancement. The note with it: 40 mM K+; 20 mM Tris HCl pH 7.0, 2 μM ThT, 4 μM RNA; F/F0 196-fold.

Assay [12] relates to Tel22 (RNA) (RNA, G4) AGGGUUAGGGUUAGGGUUAGGG
Description: fluorescence enhancement. The following applies: 40 mM K+; 20 mM Tris HCl pH 7.0, 2 μM ThT, 4 μM RNA; F/F0 440-fold.

For assay [13], the system named is ssAf22 (RNA, single strand) UGAGCUUAAUUGUAUAUAUUCG
Description: fluorescence titration. The following applies: 40 mM K+; 20 mM Tris HCl pH 7.0, 25 °C, 2 μM ThT, 1:1 fit.

Assay [14] has as its system HP18 (DNA) (DNA, hairpin) CAGTACAGATCTGTACTG
Put plainly: fluorescence enhancement. The following applies: 40 mM K+; 20 mM Tris HCl pH 7.0; F/F0 36-fold.

The test system of assay [15] is VEGF (RNA, G4) GGAGGAGGGGGAGGAGGA
Put plainly: fluorescence titration. The note with it: 40 mM K+; 20 mM Tris HCl pH 7.0, 25 °C, 2 μM ThT, 1:1 fit.

For assay [16], the system named is C9orf72 (RNA) (RNA, G4) GGGGCCGGGGCCGGGGCCGGGGCC
Put plainly: fluorescence titration. The following applies: 40 mM K+; 20 mM Tris HCl pH 7.0, 25 °C, 2 μM ThT, 1:1 fit.

Assay [17] has as its system ZIC1 (RNA, G4) GGGUGGGGGGGGCGGGGGAGGCCGGGG
Description: fluorescence titration. The following applies: 40 mM K+; 20 mM Tris HCl pH 7.0, 25 °C, 2 μM ThT, 1:1 fit.

Assay [18] concerns dsAf16 (DNA) (DNA, duplex) CTTAATTGTATATATTCGCGAATATATACAATTAAG
Put plainly: fluorescence enhancement. The following applies: 40 mM K+; 20 mM Tris HCl pH 7.0; F/F0 65-fold.

Assay [19] relates to ssAf20 (DNA) (DNA, single strand) CAATTGTATATATTCG
Put plainly: fluorescence enhancement. The note with it: 40 mM K+; 20 mM Tris HCl pH 7.0; F/F0 59-fold.

The subject of assay [20] is TRF2 (RNA, G4) CGGGAGGGCGGGGAGGGC
Put plainly: fluorescence titration. The note with it: 40 mM K+; 20 mM Tris HCl pH 7.0, 25 °C, 2 μM ThT, 1:1 fit.

For assay [21], the system named is BCL-2 (RNA) (RNA, G4) AGGGGGCCGUGGGGUGGGAGCUGGGG
Description: fluorescence titration. The following applies: 40 mM K+; 20 mM Tris HCl pH 7.0, 25 °C, 2 μM ThT, 1:1 fit.

Assay [22] has as its system ERSI (RNA, G4) GGGUAGGGGCAAAGGGGCUGGGG
Description: fluorescence titration. The following applies: 40 mM K+; 20 mM Tris HCl pH 7.0, 25 °C, 2 μM ThT, 1:1 fit.

As for `Cc1ccc2c(c1)sc(-c1ccc(N(C)C)cc1)[n+]2C`, the binding entry in assay [1], in assay [2], in assay [4], in assay [5], in [7] and in [10] was “yes” in each case. For the same molecule, the binding result in assay [11], in assay [12], in assay [14], in [18] and in [19] was “yes” throughout. Moreover, the K result in assay [3] is reported as “(9.37 ± 1.28) × 10^4 M^-1”; in assay [6], “(2.60 ± 0.12) × 10^5 M^-1”; in [8], “(5.62 ± 1.94) × 10^4 M^-1”; in assay [9] it was “(1.43 ± 1.01) × 10^5 M^-1”; in assay [13], “(5.53 ± 1.59) × 10^4 M^-1”; in assay [15], “(1.24 ± 0.15) × 10^5 M^-1”. Moreover, the K entry was “(1.92 ± 0.05) × 10^5 M^-1” in [16]; “(0.56 ± 0.22) × 10^5 M^-1” in [17]; “(0.62 ± 0.61) × 10^5 M^-1” in [20]; “(2.93 ± 0.27) × 10^5 M^-1” in assay [21]; “(2.03 ± 0.12) × 10^5 M^-1” in assay [22].

The values are drawn from publication PMC4838840 (2016).
